Data taken from ChEMBL document CHEMBL3886740, “Heterocyclic compounds and uses thereof in the treatment of sexual disorders” (2016).

Target: T1, D(4) dopamine receptor (Homo sapiens, UniProt P21917)
T1 sequence (P21917 whole entry): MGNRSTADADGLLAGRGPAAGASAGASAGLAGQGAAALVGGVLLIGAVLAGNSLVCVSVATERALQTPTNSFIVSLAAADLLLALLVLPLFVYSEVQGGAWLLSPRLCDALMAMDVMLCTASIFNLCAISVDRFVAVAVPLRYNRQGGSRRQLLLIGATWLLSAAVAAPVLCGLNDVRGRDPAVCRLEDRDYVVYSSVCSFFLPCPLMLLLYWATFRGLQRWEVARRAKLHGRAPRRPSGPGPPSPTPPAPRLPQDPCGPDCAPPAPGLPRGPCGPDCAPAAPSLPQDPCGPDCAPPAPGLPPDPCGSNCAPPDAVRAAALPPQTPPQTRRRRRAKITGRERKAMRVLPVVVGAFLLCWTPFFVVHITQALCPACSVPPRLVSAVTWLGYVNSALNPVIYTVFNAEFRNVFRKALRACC
Experiment: Receptor Binding Assay: Determination of binding to D4.4 receptor was performed using [3H]-YM-09151-2 (70-87 Ci/mmol, 0.3 nM), as a radioligand, in the presence of various concentrations of the tested compound. Reactions were carried out in 50 mM TRIS-HCl (pH 7.4) containing 5 mM MgCl2, 5 mM EDTA, 5 mM KCl and 1.5 mM CaCl2, for 60 minutes at 22° C. The reaction was terminated by rapid vacuum filtration onto glass fiber filters.

- IC50: 10 µM
Structure (SMILES): O=c1[nH]c(CN2CCN(c3ccccc3O)CC2)nc2ccccc12
